From ChEMBL document CHEMBL1153282, “N-substituted 2'-(aminoaryl)benzothiazoles as kinase inhibitors: hit identification and scaffold hopping” (Bioorg Med Chem Lett, 2009)

Legend:
[1] = biological target: Proto-oncogene tyrosine-protein kinase Src (Homo sapiens, UniProt P12931); assay: Inhibition of Src by virtual HTS assay
Insulin receptor = Insulin receptor (Homo sapiens, UniProt P06213); assay: Inhibition of insulin receptor by virtual HTS assay
Aurora kinase A = biological target: T1, Aurora kinase A (Homo sapiens, UniProt O14965); assay: Inhibition of Aurora A by virtual HTS assay
T1 sequence (O14965 whole entry): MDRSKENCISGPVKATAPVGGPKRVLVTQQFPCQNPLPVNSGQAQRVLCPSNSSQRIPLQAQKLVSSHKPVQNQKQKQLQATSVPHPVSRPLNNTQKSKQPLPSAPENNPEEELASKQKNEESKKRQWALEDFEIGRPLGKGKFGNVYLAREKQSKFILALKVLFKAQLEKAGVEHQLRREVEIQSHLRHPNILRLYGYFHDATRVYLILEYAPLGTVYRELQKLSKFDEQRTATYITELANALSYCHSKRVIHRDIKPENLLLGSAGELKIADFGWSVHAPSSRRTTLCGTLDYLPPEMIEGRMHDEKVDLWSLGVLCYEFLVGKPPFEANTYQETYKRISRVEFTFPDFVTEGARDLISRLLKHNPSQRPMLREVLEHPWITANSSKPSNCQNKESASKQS

Aurora kinase B = Aurora kinase B (Homo sapiens, UniProt Q96GD4); assay: Inhibition of Aurora B by virtual HTS assay
[2] = biological target: Epidermal growth factor receptor (Homo sapiens, UniProt P00533); assay: Inhibition of EGFR by virtual HTS assay
[3] = biological target: Platelet-derived growth factor receptor beta (Homo sapiens, UniProt P09619); assay: Inhibition of PDGFRbeta by virtual HTS assay
[4] = biological target: Insulin-like growth factor 1 receptor (Homo sapiens, UniProt P08069); assay: Inhibition of IGF1R by virtual HTS assay
[5] = biological target: Vascular endothelial growth factor receptor 2 (Homo sapiens, UniProt P35968); assay: Inhibition of VEGFR2 by virtual HTS assay
Angiopoietin-1 receptor = Angiopoietin-1 receptor (Homo sapiens, UniProt Q02763); assay: Inhibition of TIE2 by virtual HTS assay
Ephrin type-B receptor 4 = biological target: T2, Ephrin type-B receptor 4 (Homo sapiens, UniProt P54760); assay: Inhibition of EphB4 by virtual HTS assay
T2 sequence (P54760 whole entry): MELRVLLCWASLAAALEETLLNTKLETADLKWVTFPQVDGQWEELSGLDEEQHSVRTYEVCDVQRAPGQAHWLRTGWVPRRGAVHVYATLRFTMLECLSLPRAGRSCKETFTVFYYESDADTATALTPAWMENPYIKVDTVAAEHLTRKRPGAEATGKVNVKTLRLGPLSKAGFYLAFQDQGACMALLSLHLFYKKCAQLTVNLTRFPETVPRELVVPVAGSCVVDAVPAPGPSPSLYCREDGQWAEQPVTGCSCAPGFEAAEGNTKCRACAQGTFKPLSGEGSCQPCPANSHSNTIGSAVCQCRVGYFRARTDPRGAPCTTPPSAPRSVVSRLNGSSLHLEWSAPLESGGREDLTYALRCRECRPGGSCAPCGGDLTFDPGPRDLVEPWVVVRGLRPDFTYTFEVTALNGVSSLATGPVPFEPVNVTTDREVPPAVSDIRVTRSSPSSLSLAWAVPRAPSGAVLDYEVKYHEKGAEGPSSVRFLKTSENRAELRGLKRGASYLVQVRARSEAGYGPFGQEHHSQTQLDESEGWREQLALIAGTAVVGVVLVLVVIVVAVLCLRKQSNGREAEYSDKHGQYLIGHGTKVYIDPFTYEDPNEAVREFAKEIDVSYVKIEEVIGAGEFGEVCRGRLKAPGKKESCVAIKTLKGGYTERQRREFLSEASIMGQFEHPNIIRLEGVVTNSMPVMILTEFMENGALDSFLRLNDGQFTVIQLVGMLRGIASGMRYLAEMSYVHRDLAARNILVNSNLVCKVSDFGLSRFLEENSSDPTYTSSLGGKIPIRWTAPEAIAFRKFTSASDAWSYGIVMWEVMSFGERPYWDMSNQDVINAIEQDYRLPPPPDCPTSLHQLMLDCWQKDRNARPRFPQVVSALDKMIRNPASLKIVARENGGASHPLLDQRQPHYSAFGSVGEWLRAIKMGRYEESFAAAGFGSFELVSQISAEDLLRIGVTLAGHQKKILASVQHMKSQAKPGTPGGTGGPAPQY

[6] = biological target: Vascular endothelial growth factor receptor 3 (Homo sapiens, UniProt P35916)
Description: Inhibition of VEGFR3 by virtual HTS assay

[7] = biological target: Cyclin-dependent kinase 2 (Homo sapiens, UniProt P24941); assay: Inhibition of CDK2 by virtual HTS assay
Focal adhesion kinase 1 = Focal adhesion kinase 1 (Homo sapiens, UniProt Q05397); assay: Inhibition of FAK by virtual HTS assay
[8] = biological target: Cyclin-dependent kinase 4 (Homo sapiens, UniProt P11802); assay: Inhibition of CDK4 by virtual HTS assay

Chain of Angiopoietin-1 receptor (Q02763 whole entry): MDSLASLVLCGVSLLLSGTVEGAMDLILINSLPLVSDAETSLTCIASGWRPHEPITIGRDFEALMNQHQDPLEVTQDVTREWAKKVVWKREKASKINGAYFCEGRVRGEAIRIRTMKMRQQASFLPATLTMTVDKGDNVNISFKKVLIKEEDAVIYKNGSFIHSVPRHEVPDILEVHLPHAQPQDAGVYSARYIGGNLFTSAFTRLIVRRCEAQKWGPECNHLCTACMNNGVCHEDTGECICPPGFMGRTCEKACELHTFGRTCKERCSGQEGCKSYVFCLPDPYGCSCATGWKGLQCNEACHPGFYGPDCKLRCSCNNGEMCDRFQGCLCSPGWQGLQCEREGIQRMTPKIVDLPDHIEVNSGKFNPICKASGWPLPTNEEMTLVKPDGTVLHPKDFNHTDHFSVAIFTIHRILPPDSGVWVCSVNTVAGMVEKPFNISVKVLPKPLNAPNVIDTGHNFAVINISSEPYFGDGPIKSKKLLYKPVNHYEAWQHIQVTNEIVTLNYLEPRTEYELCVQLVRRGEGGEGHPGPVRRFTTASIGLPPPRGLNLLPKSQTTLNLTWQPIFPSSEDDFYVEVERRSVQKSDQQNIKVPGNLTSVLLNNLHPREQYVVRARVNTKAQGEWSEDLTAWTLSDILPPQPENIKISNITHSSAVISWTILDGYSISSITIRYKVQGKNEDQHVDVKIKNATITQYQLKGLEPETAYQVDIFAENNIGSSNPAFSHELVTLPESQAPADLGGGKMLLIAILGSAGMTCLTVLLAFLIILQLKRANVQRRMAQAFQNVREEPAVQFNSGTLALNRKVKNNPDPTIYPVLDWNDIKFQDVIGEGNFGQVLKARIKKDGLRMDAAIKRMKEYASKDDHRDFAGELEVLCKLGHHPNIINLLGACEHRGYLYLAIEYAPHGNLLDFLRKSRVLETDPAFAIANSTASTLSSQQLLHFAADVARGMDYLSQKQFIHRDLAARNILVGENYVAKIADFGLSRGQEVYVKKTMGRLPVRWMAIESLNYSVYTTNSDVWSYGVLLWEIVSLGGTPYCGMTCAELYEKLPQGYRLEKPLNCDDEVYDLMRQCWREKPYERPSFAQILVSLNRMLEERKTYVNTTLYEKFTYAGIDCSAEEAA
Chain of Vascular endothelial growth factor receptor 2 (P35968 whole entry): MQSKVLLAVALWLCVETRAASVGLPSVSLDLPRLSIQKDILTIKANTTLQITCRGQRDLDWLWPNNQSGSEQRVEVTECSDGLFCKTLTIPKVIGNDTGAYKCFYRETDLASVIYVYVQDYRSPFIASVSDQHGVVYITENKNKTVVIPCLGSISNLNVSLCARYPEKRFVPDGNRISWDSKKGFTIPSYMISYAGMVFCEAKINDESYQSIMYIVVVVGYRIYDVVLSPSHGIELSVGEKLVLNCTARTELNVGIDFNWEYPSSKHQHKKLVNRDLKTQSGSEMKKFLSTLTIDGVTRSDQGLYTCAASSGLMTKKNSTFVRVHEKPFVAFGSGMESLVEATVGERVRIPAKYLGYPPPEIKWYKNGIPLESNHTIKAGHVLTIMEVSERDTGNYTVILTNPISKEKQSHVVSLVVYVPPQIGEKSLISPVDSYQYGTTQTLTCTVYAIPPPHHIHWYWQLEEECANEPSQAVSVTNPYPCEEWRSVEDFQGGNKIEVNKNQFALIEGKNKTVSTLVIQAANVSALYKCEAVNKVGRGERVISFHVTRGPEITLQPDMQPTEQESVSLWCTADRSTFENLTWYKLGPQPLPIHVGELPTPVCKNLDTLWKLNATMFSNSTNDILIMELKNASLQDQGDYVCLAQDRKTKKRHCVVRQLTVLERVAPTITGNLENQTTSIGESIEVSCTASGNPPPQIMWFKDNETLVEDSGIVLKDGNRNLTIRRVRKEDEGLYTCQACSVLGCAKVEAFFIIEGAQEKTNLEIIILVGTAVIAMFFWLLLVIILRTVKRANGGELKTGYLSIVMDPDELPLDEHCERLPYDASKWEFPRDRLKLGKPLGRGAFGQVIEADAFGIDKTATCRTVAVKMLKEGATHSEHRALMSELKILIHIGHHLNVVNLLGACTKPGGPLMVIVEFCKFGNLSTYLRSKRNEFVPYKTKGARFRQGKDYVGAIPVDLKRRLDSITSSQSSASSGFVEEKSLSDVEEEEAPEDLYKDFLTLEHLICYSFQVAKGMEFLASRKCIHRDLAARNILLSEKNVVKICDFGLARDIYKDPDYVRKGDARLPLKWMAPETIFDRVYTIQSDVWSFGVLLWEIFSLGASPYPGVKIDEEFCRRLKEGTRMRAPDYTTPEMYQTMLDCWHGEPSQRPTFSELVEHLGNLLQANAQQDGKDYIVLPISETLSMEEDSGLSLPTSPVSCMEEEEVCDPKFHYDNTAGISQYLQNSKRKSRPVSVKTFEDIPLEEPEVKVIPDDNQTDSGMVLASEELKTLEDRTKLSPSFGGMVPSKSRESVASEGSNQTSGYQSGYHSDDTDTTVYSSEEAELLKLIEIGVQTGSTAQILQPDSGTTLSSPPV
Chain of Insulin receptor (P06213 28-758 limits assumed): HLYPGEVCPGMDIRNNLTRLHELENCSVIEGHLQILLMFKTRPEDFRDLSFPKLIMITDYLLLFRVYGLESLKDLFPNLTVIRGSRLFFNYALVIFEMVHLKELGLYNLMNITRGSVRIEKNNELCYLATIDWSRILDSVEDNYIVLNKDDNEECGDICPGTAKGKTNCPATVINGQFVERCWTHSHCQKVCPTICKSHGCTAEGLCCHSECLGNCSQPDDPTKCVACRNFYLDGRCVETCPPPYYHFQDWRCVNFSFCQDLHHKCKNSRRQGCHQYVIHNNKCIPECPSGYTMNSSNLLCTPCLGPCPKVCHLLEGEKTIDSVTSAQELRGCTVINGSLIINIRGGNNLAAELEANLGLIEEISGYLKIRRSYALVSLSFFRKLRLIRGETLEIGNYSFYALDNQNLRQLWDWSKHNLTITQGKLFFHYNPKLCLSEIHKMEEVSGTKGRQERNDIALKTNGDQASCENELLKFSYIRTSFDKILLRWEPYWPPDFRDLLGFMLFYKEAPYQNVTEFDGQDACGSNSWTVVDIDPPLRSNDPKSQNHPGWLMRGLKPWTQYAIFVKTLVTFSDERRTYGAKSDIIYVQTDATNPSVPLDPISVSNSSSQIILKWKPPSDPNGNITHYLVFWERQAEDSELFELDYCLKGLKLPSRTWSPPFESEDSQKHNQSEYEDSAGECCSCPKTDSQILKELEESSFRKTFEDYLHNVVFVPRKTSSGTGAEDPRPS
Chain of Insulin receptor (P06213 763-1382 limits assumed): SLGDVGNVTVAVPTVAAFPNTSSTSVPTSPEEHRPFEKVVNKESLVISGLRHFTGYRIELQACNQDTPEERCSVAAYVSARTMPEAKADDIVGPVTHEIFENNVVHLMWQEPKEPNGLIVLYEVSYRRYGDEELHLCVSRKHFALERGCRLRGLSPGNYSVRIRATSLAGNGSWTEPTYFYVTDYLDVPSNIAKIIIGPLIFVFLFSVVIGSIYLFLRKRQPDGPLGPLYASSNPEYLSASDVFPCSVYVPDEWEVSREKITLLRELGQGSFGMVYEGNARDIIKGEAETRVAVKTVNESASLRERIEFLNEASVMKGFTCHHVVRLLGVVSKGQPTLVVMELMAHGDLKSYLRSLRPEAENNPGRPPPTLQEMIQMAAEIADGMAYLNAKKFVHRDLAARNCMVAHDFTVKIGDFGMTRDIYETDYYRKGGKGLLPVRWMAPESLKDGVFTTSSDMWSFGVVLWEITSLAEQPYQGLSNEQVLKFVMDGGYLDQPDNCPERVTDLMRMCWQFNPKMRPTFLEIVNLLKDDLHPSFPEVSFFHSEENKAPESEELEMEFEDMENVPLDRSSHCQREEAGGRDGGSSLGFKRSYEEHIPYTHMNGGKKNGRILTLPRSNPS
Chain of Platelet-derived growth factor receptor beta (P09619 whole entry): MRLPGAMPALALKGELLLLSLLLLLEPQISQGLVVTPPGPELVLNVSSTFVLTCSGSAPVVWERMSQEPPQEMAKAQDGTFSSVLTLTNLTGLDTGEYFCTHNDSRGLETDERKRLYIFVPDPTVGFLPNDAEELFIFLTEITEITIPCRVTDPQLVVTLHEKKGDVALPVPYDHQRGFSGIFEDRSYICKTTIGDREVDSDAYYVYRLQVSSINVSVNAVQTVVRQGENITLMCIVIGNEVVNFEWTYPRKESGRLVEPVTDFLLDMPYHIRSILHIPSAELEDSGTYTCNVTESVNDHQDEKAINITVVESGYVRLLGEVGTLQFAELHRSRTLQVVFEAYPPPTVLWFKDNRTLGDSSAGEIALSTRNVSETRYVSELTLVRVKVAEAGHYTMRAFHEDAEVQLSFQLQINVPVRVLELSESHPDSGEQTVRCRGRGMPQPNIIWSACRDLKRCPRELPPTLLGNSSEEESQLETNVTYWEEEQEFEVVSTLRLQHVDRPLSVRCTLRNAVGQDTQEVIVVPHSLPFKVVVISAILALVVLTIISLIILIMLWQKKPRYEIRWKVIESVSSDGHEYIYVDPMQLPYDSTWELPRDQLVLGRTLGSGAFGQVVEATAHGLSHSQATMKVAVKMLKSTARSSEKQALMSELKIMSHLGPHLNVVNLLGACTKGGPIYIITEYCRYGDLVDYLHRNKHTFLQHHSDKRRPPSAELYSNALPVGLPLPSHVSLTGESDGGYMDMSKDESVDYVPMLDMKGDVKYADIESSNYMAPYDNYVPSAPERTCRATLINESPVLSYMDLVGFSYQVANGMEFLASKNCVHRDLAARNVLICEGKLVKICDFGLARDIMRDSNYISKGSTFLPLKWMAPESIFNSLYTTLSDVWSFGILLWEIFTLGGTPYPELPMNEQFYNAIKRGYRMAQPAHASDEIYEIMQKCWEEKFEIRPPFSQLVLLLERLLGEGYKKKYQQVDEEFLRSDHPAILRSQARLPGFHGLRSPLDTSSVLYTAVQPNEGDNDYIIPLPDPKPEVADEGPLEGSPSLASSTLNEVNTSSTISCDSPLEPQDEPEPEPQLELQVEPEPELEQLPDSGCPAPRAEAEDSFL

IC50 [1] [nM] | IC50 (Insulin receptor) [nM] | IC50 (Aurora kinase A) [µM] | IC50 (Aurora kinase B) [nM] | IC50 [2] [nM] | IC50 [3] [µM] | IC50 [4] [nM] | IC50 [5] [nM] | IC50 (Angiopoietin-1 receptor) [µM] | IC50 (Ephrin type-B receptor 4) [nM] | IC50 [6] [nM] | IC50 [8] [µM] | Structure (SMILES) | IC50 [7] [nM] | IC50 (Focal adhesion kinase 1) [nM]
190 | 1600 | 0.16 | 2000 | 1900 | > 10 | 100 | 7500 | > 10 | > 10000 | 2500 | – | Cc1cc(Nc2ccnc(Nc3cccc(-c4nc5ccccc5s4)c3)n2)n[nH]1 | – | –
– | 2600 | 6.5 | 7400 | – | 3 | – | 510 | 8.3 | 480 | 2400 | – | COc1cc2ncnc(Nc3ccc(F)c(Cl)c3)c2cc1OC | – | –
> 10000 | 630 | > 10 | > 10000 | > 10000 | – | > 10000 | > 10000 | > 10 | > 10000 | – | – | CNc1nc(Nc2ccc(-c3nc4ccccc4s3)cc2)c2cc(OC)c(OC)cc2n1 | – | –
300 | > 10000 | 2.7 | > 10000 | > 10000 | – | 3300 | 1000 | > 10 | > 10000 | – | – | Cc1cc2c(Nc3ccc(-c4nc5ccccc5s4)cc3)ncnc2cc1Cl | – | –
> 10000 | > 10000 | > 10 | > 10000 | > 10000 | – | > 10000 | > 10000 | > 10 | > 10000 | – | – | COc1cc(Nc2ccnc3cc(Cl)ccc23)ccc1-c1nc2ccccc2s1 | – | –
700 | > 10000 | > 10 | 510 | > 10000 | – | 1100 | 800 | 1 | 1000 | – | – | Fc1cc(-c2nc3ccccc3s2)ccc1Nc1ncnc2cc(Cl)ccc12 | – | –
– | 7900 | 5.3 | 920 | 1600 | – | 7500 | – | – | – | – | 6.6 | COc1cc2ncnc(Nc3ccc(N4Cc5ccccc5C4)cc3)c2cc1OC | – | –

Structure (SMILES) | IC50 [1] [nM] | IC50 (Insulin receptor) [nM] | IC50 (Aurora kinase A) [µM] | IC50 (Aurora kinase B) [nM] | IC50 [2] [nM] | IC50 [3] [µM] | IC50 [4] [nM] | IC50 [5] [nM] | IC50 (Angiopoietin-1 receptor) [µM] | IC50 (Ephrin type-B receptor 4) [nM] | IC50 [6] [nM] | IC50 [8] [µM] | IC50 [7] [nM] | IC50 (Focal adhesion kinase 1) [nM]
O=C(NC(=S)Nc1ccc(O)c(-c2nc3ccccc3s2)c1)c1ccc([N+](=O)[O-])cc1 | 190 | – | – | – | 280 | 1 | 310 | 3000 | 3 | 610 | 1000 | – | 700 | 900
